# Experimental data published in patent US20040010042A1, “Method for preventing decrease of breast milk amount in mammals” (Ajinomoto Co., Inc., priority 2002, published 2004).
# System: lactating Holstein cows in sub-clinical ketosis
# Test: Change of daily milk production after a single intravenous injection in lactating Holstein cows with sub-clinical ketosis
# Type: in vivo
# Source text: Ten lactating Holstein cows in the immediate post-partum period of which milk production was 10-15% decreased in comparison with that of one week before the beginning of test due to sub-clinical ketosis were used. All cows were supplied with a complete feed for lactating cows composed of corn silage and concentrate containing grains, oil meals, animal proteins and vitamins/minerals. On the first day in the test, a solution containing 29 g of L-glutamine dissolved in 1 liter of distilled water for injection was injected into the cows through the cervical vein. The cows were then milked twice a day for one month, and the milk amount was measured. Ten lactating Holstein cows in sub-clinical ketosis were selected as negative controls according to the same criterion as in Example. On the first day in the test, 1 liter of saline was injected through the cervical vein as the negative control. On the other hand, nine lactating Holstein cows selected according to the same criterion as described above were used. On the first day in the test, 1 liter of a 25% dextrose solution was injected through the cervical vein as the positive control. Both the negative and positive controls were then supplied with the same complete feed as used in Example. The cows were then milked twice a day for one month, and the milk amount was measured. […] The X-axis indicates days after administration, and the Y-axis indicates the increment of the milk amount from that on the first day of the test. […] The increase of the milk amount was about 12 kg per day at maximum. […] Thus, the present invention can provide a novel method which is inexpensive and safe for preventing decrease of milk amount in mammals.
smiles,measurement,setting,value
"NC(=O)CC[C@H](N)C(=O)O [glutamine, L-glutamine]","milk amount increase on the average, from that on the first day of the test","single injection through the cervical vein on the first day (29 g L-glutamine in 1 liter, or 1 liter of 25% dextrose solution), milked twice a day for one month",7.6 kg per day
same,"increase of the milk amount at maximum, from that on the first day of the test","single injection through the cervical vein on the first day (29 g L-glutamine in 1 liter, or 1 liter of 25% dextrose solution), milked twice a day for one month, FIG. 1",about 12 kg per day
same,course of the change of the milk amount after administration,"single injection through the cervical vein on the first day, followed for one month, FIG. 1","increased immediately after administration, and this tendency lasted even one month after administration"
